Test results as given in article PMC6670186, “Novel prodrugs of decitabine with greater metabolic stability and less toxicity” (Clinical Epigenetics, 2019).
Marks after values point to notes of the source that are not given here.

Key:
[1] = test system: exogenous UCHL1 promoter and OSR2 promoter CpG island; test: Quantitative methylation-specific PCR of marker genes; assay type: cell-based, Human; settings: qMSP
Method: One microgram of EcoRV-digested genomic DNA was treated with sodium bisulfite as described previously. Bisulfite-treated DNA was resuspended in 40 μL of TE-buffer (10 mM Tris, pH 8.0; 1 mM EDTA, pH 8.0), and 1 μL was used for quantitative methylation-specific PCR (qMSP) using primers specific to methylated and unmethylated target loci, including MetLuc-UCHL1 promoter, OSR2 promoter, and UCHL1 promoter (Additional file 1: Table S1). As a fully unmethylated DNA control, genomic DNA from peripheral blood cells of a healthy person was amplified twice using a GenomiPhi DNA amplification kit (GE Healthcare Life Sciences; Little Chalfont, UK). As a fully methylated DNA control, the fully unmethylated DNA was methylated by SssI methylase (New England Biolabs; Beverly, MA).

[2] = test system: Cytidine deaminase (CDA); set-up: method as in J. Clinical Investigation, 1974, 53(3), 922-931; settings: substrate of CDA; ref J. Clinical Investigation, 1974, 53(3), 922-931; cited from earlier work
[3] = Stability in phosphate-buffered saline; assay type: physicochemical; settings: for t1/2 in PBS: PBS solution at 37°C; for Stability t1/2 in PBS: PBS 37 °C, 20** + x h, 20 h = t1/2 in PBS of DAC, x = OR compound
Method: Five microliters of DAC derivatives (1.0 mg/100 μL of DMSO) was added to 200 μL of a stirred PBS solution at 37 °C. The mixture was stirred continuously for 1 day. The remaining of the starting derivatives was assayed using the HPLC analytical conditions as described above.

[4] = Partition coefficient (log P), shake-flask method, n-octanol/PBS; assay type: physicochemical
Method: The method employed HPLC with the following conditions: ZORBAX Bonus C18 column (4.6 × 150 mm, 3 μm); eluent: A = 10 mM HCO2NH4, B = acetonitrile, A:B = 50:50 (an isocratic mode for 5 min), and A:B = 99:1–20:80 (a gradient mode for 15 min); flow rate = 1.0 mL/min; oven temperature = 40 °C; detection = 240 nm.

[5] = target: T1, human recombinant cytidine deaminase (Homo sapiens, UniProt P32320); test: Stability in the presence of cytidine deaminase; assay type: in vitro ADME; settings: for Enzymatic stability, retained: cytidine deaminase, after 2 h
T1 construct: His; purchased AT Gen Co. Ltd; Seoul, Korea
From the text: The remaining of the starting derivatives were continuously assayed using HPLC analytical conditions as described above.

[6] = Pharmacokinetics in mice, intraperitoneal; assay type: in vivo; settings: for AUC 0 → lim, DAC / AUC 0 → lim, Total / AUC 0 → lim, OR compound: plasma; for AUC 0 → lim, DAC: DAC (metabolite for OR compounds), equimolar dose; for AUC 0 → lim, Total: OR compound + metabolite DAC; for AUC 0 → lim, OR compound: dose equimolar to 0.20 mg/kg DAC
Method: Six-week-old female ICR mice were intraperitoneally injected with 0.20 mg/kg of DAC, 0.29 mg/kg of OR-2003, 0.32 mg/kg of OR-2009, 0.30 mg/kg of OR-2100, and 0.31 mg/kg of OR-2102. The doses were decided so that equivalent amounts of molar concentration would be administered. The blood plasma was collected before and at 5, 15, 30, 45, 60, 90, and 120 min after the treatment. All experimental procedures were approved by the Committee of National Cancer Center.

[7] = Chemical stability in a protic solvent; assay type: physicochemical

T1 sequence (P32320 whole entry): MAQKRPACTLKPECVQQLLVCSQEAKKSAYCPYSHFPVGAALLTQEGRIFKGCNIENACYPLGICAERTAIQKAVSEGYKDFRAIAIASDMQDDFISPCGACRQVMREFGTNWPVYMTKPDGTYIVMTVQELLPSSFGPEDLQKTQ

SMILES	t1/2 in PBS [3]	Log PO/PBS [4]	further results
Nc1ncn([C@H]2C[C@H](OP(=O)(O)OC[C@H]3O[C@@H](n4cnc5c(=O)[nH]c(N)nc54)C[C@@H]3O)[C@@H](CO)O2)c(=O)n1 [guadecitabine, reference compound]			dose with strongest effect of DNA demethylation [1]: 1.0 µM; DNA demethylation of exogenous UCHL1 promoter and OSR2 promoter CpG island ([1]; 0.0 to 10.0 μM): weaker demethylation effect than OR-2003 and OR-2100
Nc1nc(=O)n([C@@H]2O[C@H](CO)[C@@H](O)[C@H]2O)cc1F [5-fluorocytidine]			Michaelis constant [2]: 30 µM
CC[Si](C)(C)OC[C@H]1O[C@@H](n2cnc(N)nc2=O)C[C@@H]1O [Methyl, Methyl, Ethyl]	0.9 h		
C[Si](C)(OC[C@H]1O[C@@H](n2cnc(N)nc2=O)C[C@@H]1O)C1CCCCC1 [OR-2009]	14 h	2.52	half-life (time to release DAC) [3]: ≥ 14 h; Stability t1/2 in PBS [3]: 20** + 14 h; Enzymatic stability, retained [5]: Retain 75% after 2 h; total AUC of OR compound and metabolite DAC compared with DAC [6]: larger AUCs than that of DAC; AUC 0 → lim, DAC [6]: 0.238 µM·h; AUC 0 → lim, Total [6]: 0.552 µM·h; AUC 0 → lim, OR compound [6]: 0.314 µM·h
CC[Si](CC)(OCC1OC(n2cnc(N)nc2=O)CC1O)C1CCCC1 (stereo not drawn) [Ethyl, Ethyl, c-Pentyl]	> 24 h	3.10	
C[Si](C)(Cc1ccccc1)OC[C@H]1O[C@@H](n2cnc(N)nc2=O)C[C@@H]1O [Methyl, Methyl, Benzyl]	2.5 h	1.73	enzymatic stability in the presence of CDA [5]: gradually degraded by CDA
C[Si](C)(C)OC[C@H]1O[C@@H](n2cnc(N)nc2=O)C[C@@H]1O [Methyl, Methyl, Methyl]	Unstable		stability in a protic solvent [7]: unstable
CC[Si](C)(CC)OC[C@H]1O[C@@H](n2cnc(N)nc2=O)C[C@@H]1O [Ethyl, Ethyl, Methyl]	4 h	1.49	enzymatic stability in the presence of CDA [5]: stable in the presence of CDA
CCCCCCCC[Si](C)(C)OCC1OC(n2cnc(N)nc2=O)CC1O (stereo not drawn) [Methyl, Methyl, n-Octyl]	1.5 h		
Nc1ncn([C@@H]2O[C@H](CO)[C@@H](O)[C@H]2O)c(=O)n1 [AZA, 5-azacytidine]			Michaelis constant [2]: 430 µM
Nc1ccn([C@H]2C[C@H](O)[C@@H](CO)O2)c(=O)n1 [2'-deoxycytidine]			Michaelis constant [2]: 26 µM
CC(C)(C)[Si](C)(C)OC[C@H]1O[C@@H](n2cnc(N)nc2=O)C[C@@H]1O [Methyl, Methyl, t-Butyl]	> 24 h	1.91	stability in a protic solvent [7]: stable

Further lines, with some results ahead:

t1/2 in PBS [3]	Log PO/PBS [4]	SMILES	further results
22 h	5.20	CCC[Si](CCC)(CCC)OC[C@H]1O[C@@H](n2cnc(N)nc2=O)C[C@@H]1O [n-Propyl, n-Propyl, n-Propyl]	
12 h	1.48	CC(C)[Si](C)(C)OC[C@H]1O[C@@H](n2cnc(N)nc2=O)C[C@@H]1O [Methyl, Methyl, i-Propyl]	enzymatic stability in the presence of CDA [5]: stable in the presence of CDA
15 h	2.16	C[Si](C)(OCC1OC(n2cnc(N)nc2=O)CC1O)C1CCCC1 (stereo not drawn) [Methyl, Methyl, c-Pentyl]	
19 h	2.54	CCC[Si](CC)(CC)OC[C@H]1O[C@@H](n2cnc(N)nc2=O)C[C@@H]1O [OR-2102]	half-life (time to release DAC) [3]: ≥ 14 h; Stability t1/2 in PBS [3]: 20** + 19 h; enzymatic stability in the presence of CDA [5]: gradually degraded by CDA; Enzymatic stability, retained [5]: Retain 46% after 2 h; AUC 0 → lim, DAC [6]: 0.285 µM·h; AUC 0 → lim, Total [6]: 0.366 µM·h; AUC 0 → lim, OR compound [6]: 0.081 µM·h
1.3 h	4.56	CCCC[Si](C)(C)OC[C@H]1O[C@@H](n2cnc(N)nc2=O)C[C@@H]1O [Methyl, Methyl, n-Butyl]	
> 24 h	2.56	CC[Si](CC)(OC[C@H]1O[C@@H](n2cnc(N)nc2=O)C[C@@H]1O)C(C)C [Ethyl, Ethyl, i-Propyl]	
> 24 h	4.69	Nc1ncn([C@H]2C[C@H](O)[C@@H](CO[Si](Cc3ccccc3)(Cc3ccccc3)Cc3ccccc3)O2)c(=O)n1 [Benzyl, Benzyl, Benzyl]	
